The values that follow come from US20220194938A1, “NOVEL COMPOUNDS AND PHARMACEUTICAL COMPOSITIONS THEREOF FOR THE TREATMENT OF INFLAMMATORY DISORDERS” (GALAPAGOS NV, priority 2019, published 2022).

In data set [1] the test system is pooled cryopreserved hepatocytes. The experiment in a line: Metabolic stability in hepatocytes (human). Type of data set: in vitro ADME. To be noted: 1 μM test compound. The method, then: 4.6. Metabolic Stability in Hepatocytes
The aim of this assay is to determine the metabolic stability of the compound in hepatocytes (cryopreserved) of different species. Low hepatocyte stability may result in the formation of unwanted metabolites, high clearance, and therefore is not desirable.
The decrease in parent was assessed by measuring the percentage remaining by LC-MS/MS analysis.
A 10 mM stock solution of test compound in DMSO was first diluted in DMSO to 3 mM, and then in modified Krebs-Henseleit buffer (Sigma, K3753) to 5 μM. This compound dilution was added to a suspension of pooled cryopreserved hepatocytes (BioreclamationIVT) at 37° C. under gentle shaking.
Final reaction conditions were: 1 μM of test compound, 0.03% DMSO, 0.5 million viable hepatocytes/mL, and 75 μL incubation volume.
Testosterone (1 μM) and 7-hydroxycoumarin (1 μM) were used, respectively as phase I and phase II metabolic reaction controls.
After 0, 10, 20, 45, 90, 120 and 180 min of incubation, the reaction was terminated with 225 μL of MeCN:MeOH (2:1) containing 100 ng/mL of diclofenac as analytical internal standard. Samples were mixed, centrifuged and the supernatant analyzed by LC-MS/MS.
The instrument responses (ratios of test compound and internal standard peak areas) were referenced to the zero time point samples (considered as 100%) in order to determine the percentage of compound remaining.
Plots of percentage compound remaining are used to determine the intrinsic clearance in the hepatocyte incubations using the following equations:
Scaled Clint[L/h/kg]=Clint[μL/min/10^6 cells]*#(10^6) cells/g liver*60*(1/10^6) Scaled Clint unbound [L/h/kg]=Clint [L/h/kg]/Fu,inc where: fu,inc equals hepatocyte binding, derived from microsomal binding (fu,mic) by following equation: […]

Data set [2] deals with T1, human IRAK-4 (Homo sapiens, UniProt Q9NWZ3).
T1 construct: purchased Carna Biosciences 09 145
T1 sequence (Q9NWZ3 1-460): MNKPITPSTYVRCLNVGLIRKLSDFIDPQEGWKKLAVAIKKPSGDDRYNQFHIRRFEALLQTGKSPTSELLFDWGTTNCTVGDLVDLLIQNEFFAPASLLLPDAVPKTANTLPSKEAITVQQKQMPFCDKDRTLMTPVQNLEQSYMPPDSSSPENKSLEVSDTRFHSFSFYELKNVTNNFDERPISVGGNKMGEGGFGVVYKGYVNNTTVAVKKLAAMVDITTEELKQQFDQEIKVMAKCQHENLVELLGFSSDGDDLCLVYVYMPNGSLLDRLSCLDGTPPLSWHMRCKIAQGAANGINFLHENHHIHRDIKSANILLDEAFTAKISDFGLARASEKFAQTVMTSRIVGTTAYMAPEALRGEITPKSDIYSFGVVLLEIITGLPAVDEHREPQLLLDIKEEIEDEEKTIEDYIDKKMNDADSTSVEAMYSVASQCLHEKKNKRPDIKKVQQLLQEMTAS
Nature of the data set: Phosphorylation IC50 determination for human IRAK-4 (ADP-Glo kinase assay). To be noted: human IRAK-4, RIP140 substrate, Km ATP; read-out: IRAK4 ADPglo biochemical assay IC50. A digest of the protocol:
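IRAK-4 phosphorylation of RIP140 at Km ATP in Tris pH 7.5 buffer with Triton X-100, EGTA, MgCl2, DTT and MnCl2, 120 min at room temperature. ADP formed was measured by ADP-Glo luminescence. Ten-point, 5-fold dilutions (highest final 20 μM, automated format; 1% DMSO), normalised to staurosporine (100%) and DMSO (0%) controls.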
For orientation: ADP-Glo first removes unused ATP, then detects ADP through luciferase.

SMILES strings stand for the structures.

As a reminder, the IC50 is the concentration that gives 50% inhibition.

`CNC(=O)c1cc2nc(CCC(C)(C)O)cn2cc1NC(=O)c1cccc(C(F)(F)F)n1` [Compound 2, 2-(3-hydroxy-3-methyl-butyl)-N-methyl-6-[[6-(trifluoromethyl)pyridine-2-carbonyl]amino]imidazo[1,2-a]pyridine-7-carboxamide]: the “Human (Perc. remaining at 90 min)” value in data set [1] came to 99.9%. Further, the IC50 in data set [2] lay in the range of 0.1 to 5 nM.

As to `COc1cc2nc(CCC(C)(C)O)cn2cc1NC(=O)c1cccn(C2CC2)c1=O` [Compound 5, 1-cyclopropyl-N-[2-(3-hydroxy-3-methyl-butyl)-7-methoxy-imidazo[1,2-a]pyridin-6-yl]-2-oxo-pyridine-3-carboxamide], the “Human (Perc. remaining at 90 min)” value in data set [1] was 95.6%. Further, the IC50 in data set [2] lay in the range of 0.1 to 5 nM.

Consider `COc1cc2nc(CCC(C)(C)O)cn2cc1NC(=O)c1cccn(C)c1=O` [Compound 4, N-[2-(3-hydroxy-3-methyl-butyl)-7-methoxy-imidazo[1,2-a]pyridin-6-yl]-1-methyl-2-oxo-pyridine-3-carboxamide], for which, in data set [1], the “Human (Perc. remaining at 90 min)” value is given as 99.7%. Besides, the IC50 in data set [2] fell in the range of 5 to 10 nM.

In the case of `CCOc1c(NC(=O)c2cccn(C)c2=O)cn2cc(CCC(C)(C)O)nc2c1F` [Compound 38, N-[7-ethoxy-8-fluoro-2-(3-hydroxy-3-methyl-butyl)imidazo[1,2-a]pyridin-6-yl]-1-methyl-2-oxo-pyridine-3-carboxamide], the IC50 in data set [2] was 5 to 10 nM.

With `COc1cc2nc(CCS(C)(=O)=O)cn2cc1NC(=O)c1cccc(C(F)(F)F)n1` [Compound 24, N-[7-methoxy-2-(2-methylsulfonylethyl)imidazo[1,2-a]pyridin-6-yl]-6-(trifluoromethyl)pyridine-2-carboxamide], in data set [1], the “Human (Perc. remaining at 90 min)” value is reported as 73.6%. Also, in data set [2], the IC50 was 0.1 to 5 nM.

Turning to `CCn1cccc(C(=O)Nc2cn3cc(CCC(C)(C)O)nc3cc2OC)c1=O` [Compound 23, 1-ethyl-N-[2-(3-hydroxy-3-methyl-butyl)-7-methoxy-imidazo[1,2-a]pyridin-6-yl]-2-oxo-pyridine-3-carboxamide], the “Human (Perc. remaining at 90 min)” value in data set [1] was found to be 91.45%. Also, the IC50 in data set [2] is 5 to 10 nM.

Take `[2H]C([2H])([2H])NC(=O)c1cc2nc(CCC(C)(C)O)cn2cc1NC(=O)c1cccc(C(F)(F)F)n1` [Compound 1, 2-(3-hydroxy-3-methyl-butyl)-N-(trideuteriomethyl)-6-[[6-(trifluoromethyl)pyridine-2-carbonyl]amino]imidazo[1,2-a]pyridine-7-carboxamide]: the “Human (Perc. remaining at 90 min)” value in data set [1] turned out to be 96.4%. Further, the IC50 in data set [2] lay within 0.1 to 5 nM.

`CCOc1c(NC(=O)c2cccn(C3CC3)c2=O)cn2cc(CCC(C)(C)O)nc2c1F` [Compound 37, 1-cyclopropyl-N-[7-ethoxy-8-fluoro-2-(3-hydroxy-3-methyl-butyl)imidazo[1,2-a]pyridin-6-yl]-2-oxo-pyridine-3-carboxamide]: in data set [1], the “Human (Perc. remaining at 90 min)” value is 99.7%. The half-maximal inhibitory concentration (IC50) in data set [2] was in the range of 0.1 to 5 nM.

Turning to `COc1cc2nc(CCC(C)(C)O)cn2cc1NC(=O)c1cccc(C(C)(F)F)n1` [Compound 20, 6-(1,1-difluoroethyl)-N-[2-(3-hydroxy-3-methyl-butyl)-7-methoxy-imidazo[1,2-a]pyridin-6-yl]pyridine-2-carboxamide], in data set [1], the “Human (Perc. remaining at 90 min)” value worked out at 75.55%. In addition, in data set [2], the IC50 was 0.1 to 5 nM.

Regarding `COc1c(NC(=O)c2cccn(C3CC3)c2=O)cn2cc(CCC(C)(C)O)nc2c1F` [Compound 42, 1-cyclopropyl-N-[8-fluoro-2-(3-hydroxy-3-methyl-butyl)-7-methoxy-imidazo[1,2-a]pyridin-6-yl]-2-oxo-pyridine-3-carboxamide], the “Human (Perc. remaining at 90 min)” value in data set [1] is listed as 96.75%. Besides, in data set [2], the IC50 was 0.1 to 5 nM.

For the compound `COc1cccc(C(=O)Nc2cn3cc(CCC(C)(C)O)nc3cc2OC)n1` [Compound 8, N-[2-(3-hydroxy-3-methyl-butyl)-7-methoxy-imidazo[1,2-a]pyridin-6-yl]-6-methoxy-pyridine-2-carboxamide], the “Human (Perc. remaining at 90 min)” value in data set [1] is recorded as 78.4%. For the same compound, in data set [2], the 50% inhibitory concentration (IC50) was 0.1 to 5 nM.

As to `CC(C)(O)CCc1cn2cc(NC(=O)c3cccc(C(F)(F)F)n3)c(C(N)=O)cc2n1` [Compound 31, 2-(3-hydroxy-3-methyl-butyl)-6-[[6-(trifluoromethyl)pyridine-2-carbonyl]amino]imidazo[1,2-a]pyridine-7-carboxamide], the “Human (Perc. remaining at 90 min)” value in data set [1] is 94.9%. The 50% inhibitory concentration (IC50) in data set [2] lay in the range of 0.1 to 5 nM.

Consider `COc1cc2nc(CCC(C)(C)O)cn2cc1NC(=O)c1cccn(C(F)F)c1=O` [Compound 12, 1-(difluoromethyl)-N-[2-(3-hydroxy-3-methyl-butyl)-7-methoxy-imidazo[1,2-a]pyridin-6-yl]-2-oxo-pyridine-3-carboxamide], for which the “Human (Perc. remaining at 90 min)” value in data set [1] is given as 100.7%. For the same compound, the half-inhibitory concentration (IC50) in data set [2] lay in the range of 5 to 10 nM.

In the case of `CC(C)(O)CCc1cn2cc(NC(=O)c3cccc(C(F)(F)F)n3)c(C(=O)NCC(F)F)cc2n1` [Compound 48, N-(2,2-difluoroethyl)-2-(3-hydroxy-3-methylbutyl)-6-(6-(trifluoromethyl)picolinamido)imidazo[1,2-a]pyridine-7-carboxamide], the “Human (Perc. remaining at 90 min)” value in data set [1] is recorded as 100.95%. Also, the IC50 in data set [2] fell in the range of 0.1 to 5 nM.

On to `CCOc1c(NC(=O)c2cccn(C3CC3)c2=O)cn2cc(CCS(C)(=O)=O)nc2c1F` [Compound 39, 1-cyclopropyl-N-[7-ethoxy-8-fluoro-2-(2-methylsulfonylethyl)imidazo[1,2-a]pyridin-6-yl]-2-oxo-pyridine-3-carboxamide], for which, in data set [2], the IC50 was 5 to 10 nM.

For the compound `COc1cc2nc(CCC(C)(C)O)cn2cc1NC(=O)c1cccc(C)n1` [Compound 6, N-[2-(3-hydroxy-3-methyl-butyl)-7-methoxy-imidazo[1,2-a]pyridin-6-yl]-6-methyl-pyridine-2-carboxamide], the “Human (Perc. remaining at 90 min)” value in data set [1] is given as 30.3%. Further, in data set [2], the IC50 lay in the range of 0.1 to 5 nM.

As for `COCCc1cn2cc(NC(=O)c3cccc(C(F)(F)F)n3)c(OC)cc2n1` [Compound 35, N-[7-methoxy-2-(2-methoxyethyl)imidazo[1,2-a]pyridin-6-yl]-6-(trifluoromethyl)pyridine-2-carboxamide], the “Human (Perc. remaining at 90 min)” value in data set [1] turned out to be 64.9%. The concentration for half-maximal inhibition (IC50) in data set [2] lay in the range of 10 to 50 nM.

`CCNC(=O)c1cc2nc(CCC(C)(C)O)cn2cc1NC(=O)c1cccc(C(F)(F)F)n1` [Compound 49, N-ethyl-2-(3-hydroxy-3-methylbutyl)-6-(6-(trifluoromethyl)picolinamido)imidazo[1,2-a]pyridine-7-carboxamide]: the “Human (Perc. remaining at 90 min)” value in data set [1] was found to be 95.9%. In addition, the IC50 in data set [2] was in the range of 0.1 to 5 nM.

Regarding `COc1cc2nc(CCS(C)(=O)=O)cn2cc1NC(=O)c1cccn(C2CC2)c1=O` [Compound 25, 1-cyclopropyl-N-[7-methoxy-2-(2-methylsulfonylethyl)imidazo[1,2-a]pyridin-6-yl]-2-oxo-pyridine-3-carboxamide], the “Human (Perc. remaining at 90 min)” value in data set [1] came out at 95.3%. Moreover, the IC50 in data set [2] lay within 0.1 to 5 nM.

On to `COc1cc2nc(CCC(C)(C)O)cn2cc1NC(=O)c1cccc(C(F)F)n1` [Compound 7, 6-(difluoromethyl)-N-[2-(3-hydroxy-3-methyl-butyl)-7-methoxy-imidazo[1,2-a]pyridin-6-yl]pyridine-2-carboxamide], for which, in data set [1], the “Human (Perc. remaining at 90 min)” value was found to be 78.4%. The IC50 in data set [2] was 0.1 to 5 nM.
